The source of these data is PubChem BioAssay (NCI).

SMILES strings stand for the structures.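 Protocol summary: plate cells (96-well), add compound at 5 concentrations, incubate 48 h, interpolate endpoints linearly. GI50: concentration for 50% inhibition of growth. TGI: concentration producing complete growth inhibition.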

What all share (assay): NCI-60 cell line screen, 48 h
For assay [1], the system named is UACC-62 melanoma.
The subject of assay [2] is SF-539 CNS.
Assay [3] has as its system CAKI-1 renal.
The subject of assay [4] is IGROV1 ovarian.
Assay [5] concerns SK-MEL-28 melanoma.
Assay [6] deals with T-47D breast.
The test system of assay [7] is SF-268 CNS.
The test system of assay [8] is SK-MEL-5 melanoma.
For assay [9], the system named is BT-549 breast.
The test system of assay [10] is NCI-H23 lung.

With `C=C1CC2(CCCC3(CC(=C)C(=O)O3)C2(C)C)OC1=O` (stereo not given), the TGI in assay [1] is 4.65 µM; in assay [2] it was 11.4 µM; in assay [3], 7.43 µM; in assay [4], 23.5 µM; in [5] it was 4.61 µM; in [6], 21.3 µM. For the same molecule, the TGI in assay [7] came out at 55.5 µM; in assay [8] it was 31.8 µM; in assay [9], 17 µM; in [10], 12.1 µM.

As to `COc1ccc(CC(NC(=O)[C@H](C)NC(=O)CN2CCOCC2)C(=O)N[C@@H](Cc2ccccc2)C(=O)[C@@]2(C)CO2)cc1` (stereo not given in full), the GI50 is 0.182 µM in assay [1]; 0.221 µM in assay [2]; 4.29 µM in [3]; 0.409 µM in assay [4]; 0.215 µM in assay [5]; 0.208 µM in [6]. In addition, the GI50 in assay [7] is 0.245 µM; in assay [8], 0.177 µM; in [9] it was 0.154 µM; in assay [10], 0.196 µM. Also, the TGI in assay [1] is 0.479 µM; in [2], 0.591 µM; in assay [3], greater than 57.8 µM; in assay [4] it was 7.3 µM; in assay [5], 0.586 µM; in assay [6], 0.482 µM. Besides, the TGI in assay [7] amounted to 0.708 µM; in [8], 0.379 µM; in assay [9], 0.391 µM; in assay [10], 0.695 µM.

On to `COc1cc(NCc2ccccc2O)c2ncccc2c1`, for which the GI50 in [1] is 11.2 µM; in assay [2], 21 µM; in assay [3], 6.02 µM; in assay [4], 13.7 µM; in assay [5], 21.3 µM; in assay [6] it was 20.4 µM. Moreover, the GI50 in [7] is 22.5 µM; in [8], 10.1 µM; in assay [9], 16.6 µM; in [10] it was 22.5 µM. For the same molecule, the TGI was 53.1 µM in [1]; greater than 100 µM in [2]; 34.1 µM in assay [3]; 56.2 µM in [4]; 80.2 µM in [5]; greater than 100 µM in [6]. Also, the TGI in [7] was greater than 100 µM; in [8], 23.4 µM; in assay [9] it was 55 µM; in assay [10], 97.3 µM.

Regarding `O=C(O)c1cc(Cc2ccc(O)c(C(=O)O)c2)ccc1O` (tested in a mixture with another compound), the GI50 in assay [1] is 4.73 µM; in [2] it was 11.4 µM; in assay [3], 1.36 µM; in assay [4] it was 4.72 µM; in [5] it was 10.1 µM; in assay [6], 2.67 µM. Besides, the GI50 is 7.88 µM in [7], 4.9 µM in assay [8], 3.13 µM in [9] and 5.31 µM in assay [10]. Besides, the TGI in assay [1] turned out to be 19.9 µM; in [2], 26.6 µM; in assay [3], 3.69 µM; in assay [4] it was 20.6 µM; in [5] it was 26.8 µM; in [6] it was 13.2 µM. Further, the TGI in [7] is 26.1 µM; in assay [8], 19.8 µM; in assay [9], 16.6 µM; in assay [10], 20 µM.

As for `CC(=O)OC1CCC2(C)C(=CCC3C4CCC5(OC6CC(C)CN(C(C)=O)C6C5C)C(C)=C4C(=O)C32)C1` (stereo not given), the TGI is 18.5 µM in assay [1]; 39.9 µM in assay [2]; 75.1 µM in assay [3]; 29.1 µM in assay [4]; greater than 100 µM in [5]; 49 µM in [6]. Also, the TGI in [7] is 31.4 µM; in [8], 21.9 µM; in [9] it was 28.6 µM; in [10], 29.6 µM.

Consider `C=CCC(N[C@H](CO)c1ccccc1)c1cn(S(=O)(=O)c2ccc(C)cc2)c2ccccc12` (stereo not given in full), for which the GI50 was 15.1 µM in [1]; 21.4 µM in assay [2]; 11.5 µM in assay [3]; 14.6 µM in [4]; 41.6 µM in assay [5]; 55.9 µM in [6]. The GI50 in assay [7] is greater than 100 µM; in [8], 26.1 µM; in [9], 20.5 µM; in assay [10], 20.3 µM. The TGI was 29.7 µM in assay [1]; 38.2 µM in assay [2]; 37.3 µM in assay [3]; 47.3 µM in assay [4]; greater than 100 µM in assay [5]; greater than 100 µM in [6]. Further, the TGI in assay [7] is greater than 100 µM; in assay [8], 43.8 µM; in [9], 46.5 µM; in [10], 43.5 µM.

On to `Cc1cc(C)n(C(=O)c2nn(-c3ccc(Cl)cc3)cc2O)n1`, for which the GI50 in assay [1] is 3.46 µM; in [2] it was 3.05 µM; in [3], 4.23 µM; in [4], 3.16 µM; in [5], 6.28 µM; in assay [6], 3.67 µM. In addition, the GI50 in assay [7] is 4.13 µM; in assay [8], 6.76 µM; in [9] it was 2.19 µM; in assay [10] it was 3.31 µM. Besides, the TGI in [1] is 18.6 µM; in [2], 35.1 µM; in assay [3], 42.3 µM; in [4], 73.3 µM; in assay [5], greater than 100 µM; in assay [6], greater than 100 µM. Also, the TGI in [7] is greater than 100 µM; in [8] it was 23.3 µM; in assay [9], 26.3 µM; in assay [10], greater than 100 µM.

On to `CC(O)C(O)C(O)C(/C=N\Nc1ccccc1)=N/Nc1ccccc1` (stereo not given), for which the TGI in assay [1] came out at 22.2 µM; in [2] it was 28.3 µM; in [3] it was 11.1 µM; in assay [4], 21.4 µM; in [5] it was 30.2 µM; in assay [6] it was 45.9 µM. Also, the TGI is 24.5 µM in assay [7], 28.5 µM in assay [8], 29.4 µM in assay [9] and 24.1 µM in assay [10].
